Experiment: Effect of negatively charged amino acid solutions on integrity of cat hair (scan microscope)
Details: 0.40 g cat hair in 100 g solution, 100° F., 24 hours, 810× magnification; for degree of hair damage, 0.125% solution: 0.125% amino acid solution diluted from 1.0% solution adjusted to pH 11.3
Procedure: In this example, various negatively charged amino acid solutions were prepared for testing on cat hair to determine how the solution affected the integrity of the hair. First, a 1.0% amino acid solution was prepared by mixing 5.0 g amino acid with 495 g of water. The resulting pH value of each amino acid solution at this point differed, based largely upon the different pK values for each amino acid. A sufficient quantity of sodium hydroxide solution (50.0%) was added to the 1.0% amino acid solution to adjust the pH to 11.3. Weaker amino acid solutions (0.5%, 0.25%, and 0.125%) were subsequently prepared by dilution of the 1.0% solution.
Approximately 0.40 g of cat hair were mixed with 100 g samples of each respective amino acid solution. The cat hair and amino acid solution were kept at 100° F. for 24 hours. Photographs of the cat hairs were taken with a Topcon Technology Company Model ISI-X408 electrical scan microscope at 810× magnification and the degree of hair damage and loss of identifying characteristics was noted.

## CSCCC(N)C(=O)O (racemic) [DL-methionine]
  degree of hair damage, 0.125% solution: No damage

## C[C@H](N)C(=O)O [Alanine]
  degree of hair damage, 0.125% solution: Cuticle removed

## N[C@@H](CC(=O)O)C(=O)O [Aspartic acid]
  degree of hair damage, 0.125% solution: Cuticle removed

## N[C@@H](CS)C(=O)O [Cysteine]
  degree of hair damage, 0.125% solution: No damage

## N[C@@H](CCC(=O)O)C(=O)O [Glutamic acid]
  degree of hair damage, 0.125% solution: Cuticle removed

## NCC(=O)O [Glycine]
  degree of hair damage, 0.125% solution: Cuticle removed
Listed as glycine
  degree of hair damage, 0.125% solution: portions of the cuticle layer have been removed thereby exposing the inner cortex layer
0.25% amino acid solution diluted from 1.0% solution adjusted to pH 11.3
  degree of hair damage, 0.25% solution: cuticle 14 has separated thereby forming a channel and exposing the hair cortex
0.5% amino acid solution diluted from 1.0% solution adjusted to pH 11.3
  degree of hair damage, 0.5% solution: Portions of the hair cortex 18 have been completely dissolved
1.0% amino acid solution adjusted to pH 11.3
  degree of hair damage, 1.0% solution: cuticle has been removed thereby exposing the hair cortex

## NCCCC[C@H](N)C(=O)O [Lysine]
  degree of hair damage, 0.125% solution: No damage

## O=C(O)[C@@H]1CCCN1 [Proline]
  degree of hair damage, 0.125% solution: Cuticle removed

Source: US20040096481A1, “Pet food compositions having electrostatically charged ingredient” (priority 2002, published 2004)
